Values joined by “and” are separate entries in the source; they are usually repeats but may differ in a detail not shown here. Equal values may be shown once. “Also recorded” adds a separate entry of the source. Read-outs that look alike come from different tables or passages of the source.
Columns and labels:
T. brucei PKA = T. brucei PKA (Trypanosoma brucei brucei, UniProt Q9GU80); assay: In vivo PKA reporter assay (VASP Ser-157 phosphorylation, western blot); assay type: cell-based; conditions: for % VASP phosphorylation: CpdA 10 µM, replicates; for effect on in vivo PKA activity (VASP phosphorylation), in words: wild type background; for EC50: read-out: EC50 in vivo PKA assay, VASP reporter, 15 min treatment, mean ± SD;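 as to % VASP phosphorylation: Phosphorylated VASP as percent of total VASP band signal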;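 as to all read-outs here: T. brucei cells expressing human VASP as heterologous PKA substrate, compound exposure at 37 °C, western blot of phospho (50 kDa) versus unphosphorylated (46 kDa) VASP band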
intracellular cAMP = assay: Cyclic AMP measurement (intracellular cAMP content); assay type: cell-based, Trypanosoma brucei; conditions: for pmol cAMP / 10^9 cells: independent replicates
[1] = system: cAMP release into the medium; assay: Fraction of cAMP in cell supernatant versus total cell lysate; conditions: CpdA treatment 10 µM, 15 min
T. brucei BSF cells (WT) = assay: Alamar blue cell viability assay, wild type; conditions: Trypanosoma brucei, 72 h, read-out: IC50 growth WT;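 also: trypanosomes seeded at 5×10^3 per ml and grown 72 h with compound, then resazurin 0.5 mM added for 4 h as the viability read-out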
[2] = biological target: T. brucei PKAR-PKAC1 holoenzyme (Trypanosoma brucei, UniProt Q9GU80); assay: biochemical; assay type: biochemical; conditions: for In vitro kinase assay: technical replicates
[3] = system: T. brucei ∆pkar/∆pkar (pkar KO) cells; assay: microbe, parasite or virus in culture; assay type: cell-based, Trypanosoma brucei; conditions: Trypanosoma brucei, 72 h, read-out: IC50 growth pkar KO
[4] = system: T. brucei PKA holoenzyme (PKAR-Ty1); assay type: biochemical, Trypanosoma brucei; conditions: control without cyclic nucleotide, 5 µM PKI(5-24)
[5] = system: T. brucei PKA holoenzyme (HA-PKAC2); assay type: biochemical, Trypanosoma brucei; conditions: control without cyclic nucleotide, 5 µM PKI(5-24)
[6] = system: T. brucei PKA holoenzyme (Ty1-PKAC1); assay type: biochemical, Trypanosoma brucei; conditions: for in vitro kinase assay [CPM] / in vitro kinase assay [CPM], PKI: 5 µM PKI(5-24); for in vitro kinase assay [CPM], PKI: control without cyclic nucleotide
human PKARIα = biological target: T1, human PKARIα (Homo sapiens, UniProt P10644); assay: Binding by isothermal titration calorimetry (ITC)
T1 construct: The full length ORFs (amplified with primers introducing the respective); 6xHis followed by TEV site (N); made in house; host or cells: E. coli Rosetta D3

T. brucei PKAR(199–499) = T. brucei PKAR(199–499) (Trypanosoma brucei, UniProt Q9GU80); assay: biochemical; assay type: binding; parameters: Thermodynamics (ITC) -TΔS / Thermodynamics (ITC) ΔG / Thermodynamics (ITC) ΔH: unit: kcal/mol
Sequence of T. brucei PKAR(199–499) (Q9GU80 entry or part of it): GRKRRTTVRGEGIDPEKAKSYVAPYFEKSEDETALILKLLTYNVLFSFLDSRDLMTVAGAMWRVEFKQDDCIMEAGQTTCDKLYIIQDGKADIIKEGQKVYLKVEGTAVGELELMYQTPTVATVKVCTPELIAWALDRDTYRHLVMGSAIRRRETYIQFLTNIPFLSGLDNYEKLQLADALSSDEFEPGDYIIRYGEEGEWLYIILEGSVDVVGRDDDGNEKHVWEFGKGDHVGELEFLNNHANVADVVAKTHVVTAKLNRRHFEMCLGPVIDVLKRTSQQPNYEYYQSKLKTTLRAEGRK

Sequence of T. brucei PKAR-PKAC1 holoenzyme (Q38DR5 entry or part of it): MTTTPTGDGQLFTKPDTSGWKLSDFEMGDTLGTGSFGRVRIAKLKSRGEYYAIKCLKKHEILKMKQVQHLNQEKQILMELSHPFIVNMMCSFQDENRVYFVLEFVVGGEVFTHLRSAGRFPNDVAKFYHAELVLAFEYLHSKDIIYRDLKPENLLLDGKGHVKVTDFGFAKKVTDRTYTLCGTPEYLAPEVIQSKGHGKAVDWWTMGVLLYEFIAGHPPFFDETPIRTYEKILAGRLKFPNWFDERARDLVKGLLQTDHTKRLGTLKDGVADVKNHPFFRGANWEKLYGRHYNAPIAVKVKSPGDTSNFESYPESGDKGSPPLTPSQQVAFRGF
Sequence of T. brucei PKAR-PKAC1 holoenzyme (Q9GU80 entry or part of it): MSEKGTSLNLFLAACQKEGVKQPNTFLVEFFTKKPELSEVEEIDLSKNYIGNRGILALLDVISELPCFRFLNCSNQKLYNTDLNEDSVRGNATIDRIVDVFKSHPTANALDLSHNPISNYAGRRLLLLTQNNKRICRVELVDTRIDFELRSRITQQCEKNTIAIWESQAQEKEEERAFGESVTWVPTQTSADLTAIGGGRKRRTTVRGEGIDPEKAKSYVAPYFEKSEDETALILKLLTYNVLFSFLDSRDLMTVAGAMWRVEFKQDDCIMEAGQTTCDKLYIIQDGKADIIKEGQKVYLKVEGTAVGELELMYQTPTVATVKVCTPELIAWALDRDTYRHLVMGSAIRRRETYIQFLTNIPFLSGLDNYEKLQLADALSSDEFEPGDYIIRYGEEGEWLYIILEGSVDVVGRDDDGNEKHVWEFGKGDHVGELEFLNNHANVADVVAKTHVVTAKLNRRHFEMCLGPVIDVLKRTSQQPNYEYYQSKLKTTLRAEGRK
Sequence of T. brucei PKA (Q38DS1 entry or part of it): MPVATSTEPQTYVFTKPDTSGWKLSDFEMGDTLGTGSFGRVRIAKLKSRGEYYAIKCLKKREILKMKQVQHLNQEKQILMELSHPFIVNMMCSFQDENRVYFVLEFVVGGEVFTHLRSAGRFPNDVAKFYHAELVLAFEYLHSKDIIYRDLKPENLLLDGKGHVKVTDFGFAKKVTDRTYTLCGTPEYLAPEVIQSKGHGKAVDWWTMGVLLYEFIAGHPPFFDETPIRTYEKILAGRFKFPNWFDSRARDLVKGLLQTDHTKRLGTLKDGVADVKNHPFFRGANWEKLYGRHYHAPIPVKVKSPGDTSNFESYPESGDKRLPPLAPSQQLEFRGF
Sequence of T. brucei PKA (Q38DR5 entry or part of it, further chain): as the sequence (Q38DR5 entry or part of it) above
T1 sequence (P10644 whole entry): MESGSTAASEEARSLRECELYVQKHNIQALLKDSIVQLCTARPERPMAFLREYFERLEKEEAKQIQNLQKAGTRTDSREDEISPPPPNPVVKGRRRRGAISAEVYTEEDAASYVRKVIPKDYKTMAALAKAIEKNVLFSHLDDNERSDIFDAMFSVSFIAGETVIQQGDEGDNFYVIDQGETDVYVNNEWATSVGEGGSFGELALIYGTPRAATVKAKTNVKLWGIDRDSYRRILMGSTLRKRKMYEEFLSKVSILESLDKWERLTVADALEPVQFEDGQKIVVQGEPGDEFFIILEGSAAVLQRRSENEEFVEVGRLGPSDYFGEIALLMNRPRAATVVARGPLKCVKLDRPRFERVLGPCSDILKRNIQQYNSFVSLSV

COc1ccc(C2=NN(C3CCCCCC3)C(=O)[C@@H]3CC=CC[C@H]23)cc1OCCCCOc1ccc(-c2nn[nH]n2)cc1 [CpdA]
% VASP phosphorylation (T. brucei PKA; 0 min): 37.2015% and 33.1548% and 30.9406%
% VASP phosphorylation (T. brucei PKA; 5 min): 28.9269% and 25.7882% and 23.4179%
% VASP phosphorylation (T. brucei PKA; 10 min): 28.8598% and 22.1225% and 21.1026%
% VASP phosphorylation (T. brucei PKA; 15 min): 26.7433% and 23.5931% and 18.9766%
effect on in vivo PKA activity (VASP phosphorylation), in words (T. brucei PKA): did not elicit any change
increase of intracellular cAMP content (intracellular cAMP; 10 µM, 15 min): up to 600 fold
pmol cAMP / 10^9 cells (intracellular cAMP; 10 µM, 15 min): 7046.18 pmol cAMP / 10^9 cells and 6980.91 pmol cAMP / 10^9 cells and 7465.44 pmol cAMP / 10^9 cells and 6294.38 pmol cAMP / 10^9 cells and 9321.55 pmol cAMP / 10^9 cells and 2818.14 pmol cAMP / 10^9 cells
% cAMP, total, mean (intracellular cAMP; CpdA treatment 10 µM, 15 min, total cAMP content set to 100%, mean of technical replicates): 94.1035%
% cAMP, total (intracellular cAMP; CpdA treatment 10 µM, 15 min, total cAMP content set to 100%, technical replicates): 100% and 88.2071%
nM cAMP, total (intracellular cAMP; CpdA treatment 10 µM, 15 min, total, technical replicates): 1891.66 nM and 1668.58 nM
% cAMP, supernatant, mean ([1]; mean of technical replicates): 3.201%
nM cAMP, supernatant ([1]; technical replicates): 74.7051 nM and 46.4145 nM
% cAMP, supernatant ([1]; total cAMP content set to 100%): 3.949% and 2.454%

OCCN(CCO)c1nc(N2CCCCC2)c2nc(N(CCO)CCO)nc(N3CCCCC3)c2n1 [Dipyridamole]
IC50 (T. brucei BSF cells (WT)): 9900 ± 1000 nM
induction of VASP phosphorylation in pkar knock out, in words (T. brucei PKA; homozygous deletion of PKAR): no induction
EC50 (T. brucei PKA): 22400 ± 4200 nM
effect on in vivo PKA activity (VASP phosphorylation), in words (T. brucei PKA): dose- and time-dependent induction
change of intracellular cAMP content, in words (intracellular cAMP; 100 µM): moderate increase
pmol cAMP / 10^9 cells (intracellular cAMP; 100 µM, 15 min, listed as Dip): 61.8873 pmol cAMP / 10^9 cells and 63.0147 pmol cAMP / 10^9 cells and 44.8294 pmol cAMP / 10^9 cells and 64.5236 pmol cAMP / 10^9 cells and 80.946 pmol cAMP / 10^9 cells and 55.0958 pmol cAMP / 10^9 cells
pmol cAMP / 10^9 cells (intracellular cAMP; 100 µM, 90 min, listed as Dip): 47.769 pmol cAMP / 10^9 cells and 56.3468 pmol cAMP / 10^9 cells and 59.8493 pmol cAMP / 10^9 cells and 40.4717 pmol cAMP / 10^9 cells and 46.5418 pmol cAMP / 10^9 cells and 46.5962 pmol cAMP / 10^9 cells
effect in the in vitro kinase assay, in words [2]: did not have any effect; also recorded: No effect
IC50 [3]: 16300 ± 1800 nM

NC(=O)c1cn([C@@H]2O[C@H](CO)[C@@H](O)[C@H]2O)c2ncnc(N)c12 [Sangivamycin, 7-Carboxamido-7-deazaadenosine]
IC50 (T. brucei BSF cells (WT)): 713 ± 40 nM
EC50 (T. brucei PKA): 39300 ± 5600 nM
EC50 (T. brucei PKA; listed as sangivamycin): 39000 nM
EC50 [2]: 10800 nM
In vitro kinase assay ([2]; 0.049 µM): 0.15 U/ml and 0.17 U/ml
In vitro kinase assay ([2]; 0.098 µM): 0.15 U/ml
In vitro kinase assay ([2]; 0.195 µM): 0.19 U/ml and 0.18 U/ml
In vitro kinase assay ([2]; 0.391 µM): 0.2 U/ml and 0.15 U/ml
In vitro kinase assay ([2]; 0.781 µM): 0.17 U/ml
In vitro kinase assay ([2]; 1.563 µM): 0.2 U/ml and 0.16 U/ml
In vitro kinase assay ([2]; 3.125 µM): 0.22 U/ml and 0.24 U/ml
In vitro kinase assay ([2]; 6.25 µM): 0.29 U/ml and 0.28 U/ml
In vitro kinase assay ([2]; 12.5 µM): 0.33 U/ml and 0.31 U/ml
In vitro kinase assay ([2]; 25 µM): 0.44 U/ml and 0.4 U/ml
In vitro kinase assay ([2]; 50 µM): 0.44 U/ml
IC50 [3]: 1550 ± 171 nM

PKI(5–24)
in vitro kinase assay [CPM], PKI [4]: 1399.6 CPM
in vitro kinase assay [CPM], PKI [5]: 483.2 CPM
in vitro kinase assay [CPM] ([6]; Ty1-PKAC1#1): 1999.9 CPM
in vitro kinase assay [CPM] ([6]; Ty1-PKAC1#2): 1386.5 CPM
in vitro kinase assay [CPM] ([6]; Ty1-PKAC1-dead#11): 834.7 CPM
in vitro kinase assay [CPM] ([6]; Ty1-PKAC1-dead#12): 571.7 CPM
in vitro kinase assay [CPM] ([6]; Ty1-PKAC1-dead#14): 1493.5 CPM
in vitro kinase assay [CPM] ([6]; pull down from WT cells (negative control)): 398.6 CPM
phosphorylation of kemptide, in words ([6]; 5 µM inhibitor): inhibited
in vitro kinase assay [CPM], PKI ([6]; Supp Fig 3b): 963.87 CPM
in vitro kinase assay [CPM], PKI ([6]; Supp Fig 3c): 528.13 CPM

Nc1ncnc2c1c(I)cn2[C@@H]1O[C@H](CO)[C@@H](O)[C@H]1O [5-I-Tu, 7-Iodo-7-deazaadenosine]
IC50 (T. brucei BSF cells (WT)): 330 ± 38 nM
EC50 (T. brucei PKA): 390 ± 20 nM
binding to purified human PKARIα, in words (human PKARIα): did not bind
EC50 [2]: 203 ± 79 nM
In vitro kinase assay ([2]; 0.001 µM): 0.15 U/ml and 0.13 U/ml
In vitro kinase assay ([2]; 0.05 µM): 0.22 U/ml and 0.25 U/ml
In vitro kinase assay ([2]; 0.1 µM): 0.4 U/ml and 0.36 U/ml
In vitro kinase assay ([2]; 0.2 µM): 0.45 U/ml
In vitro kinase assay ([2]; 0.39 µM): 0.75 U/ml and 0.61 U/ml
In vitro kinase assay ([2]; 0.78 µM): 0.77 U/ml and 0.8 U/ml
In vitro kinase assay ([2]; 1.56 µM): 0.79 U/ml and 0.91 U/ml
In vitro kinase assay ([2]; 3.13 µM): 0.81 U/ml and 0.96 U/ml
Kd (T. brucei PKAR(199–499)): 32 ± 9 nM
Thermodynamics (ITC) -TΔS (T. brucei PKAR(199–499); independent replicates): 6.36 and 3.65 and 4.67
Thermodynamics (ITC) ΔG (T. brucei PKAR(199–499); independent replicates): -10.1 and -10.5
Thermodynamics (ITC) ΔH (T. brucei PKAR(199–499); independent replicates): -16.5 and -14.1 and -14.8
IC50 [3]: 346 ± 41 nM

Nc1ncnc2c1c(Br)cn2[C@@H]1O[C@H](CO)[C@@H](O)[C@H]1O [5-Br-Tu, 7-Bromo-7-deazaadenosine]
IC50 (T. brucei BSF cells (WT)): 874 ± 122 nM
EC50 (T. brucei PKA): 625 ± 66 nM
EC50 [2]: 1700 ± 1400 nM
In vitro kinase assay ([2]; 0.049 µM): 0.15 U/ml and 0.17 U/ml
In vitro kinase assay ([2]; 0.098 µM): 0.25 U/ml and 0.22 U/ml
In vitro kinase assay ([2]; 0.195 µM): 0.27 U/ml and 0.24 U/ml
In vitro kinase assay ([2]; 0.391 µM): 0.37 U/ml and 0.39 U/ml
In vitro kinase assay ([2]; 0.781 µM): 0.53 U/ml and 0.48 U/ml
In vitro kinase assay ([2]; 1.563 µM): 0.72 U/ml and 0.59 U/ml
In vitro kinase assay ([2]; 3.125 µM): 0.85 U/ml and 0.72 U/ml
In vitro kinase assay ([2]; 6.25 µM): 0.89 U/ml and 1.03 U/ml
In vitro kinase assay ([2]; 12.5 µM): 1.09 U/ml and 1.13 U/ml
In vitro kinase assay ([2]; 25 µM): 1.41 U/ml and 1.21 U/ml
In vitro kinase assay ([2]; 50 µM): 1.29 U/ml and 1.22 U/ml
IC50 [3]: 1010 ± 95 nM

From paper PMC6440977, “Nucleoside analogue activators of cyclic AMP-independent protein kinase A of Trypanosoma” (Nature Communications, 2019)
